{"source": "patent US5281603A", "about": "“Angiotensin II receptor blocking 2,3,6 substituted quinazolinones” (American Cyanamid Company, priority 1993, dated 1994)", "test_system": "Angiotensin II vasopressor response", "assay": "AII challenge: antagonism of angiotensin II vasopressor response in conscious spontaneously hypertensive rats", "type": "in vivo, rat (Male Okamoto-Aoki SHR)", "conditions": "3 mg/kg I.V.; for % Inhibition / Average Change: SHR n=2; for Response After AII / Change / Control Before AII: individual SHR", "text": "By administering a compound of this invention to a rat, and then challenging with angiotensin II, a blockage of the vasopressor response is realized.\nConscious Male Okamoto-Aoki SHR, 16-20 weeks old, weighing approximately 330 g are purchased from Charles River Labs (Wilmington, Mass.). Conscious rats are restrained in a supine position with elastic tape. The area at the base of the tail is locally anesthetized by subcutaneous infiltration with 2% procaine. The ventral caudal artery and vein are isolated, and a cannula made of polyethylene (PE) 10-20 tubing (fused together by heat) is passed into the lower abdominal aorta and vena cava, respectively. The cannula is secured, heparinized (1,000 I.U./ml), sealed and the wound is closed. The animals are placed in plastic restraining cages in an upright position. The cannula is attached to a Statham P23Db pressure transducer, and pulsatile blood pressure is recorded to 10-15 minutes with a Gould Brush recorder. (Chan et al., (Drug Development Res., 18:75-94, 1989).\nAngiotensin II (human sequence, Sigma Chem. Co., St. […] Then a test compound, vehicle or a known angiotensin II antagonist is administered i.v., i.p. or orally to each set of rats. The two doses of angiotensin II are given to each rat again at 30, 60, 90, 120, 180, 240 and 300 minutes post dosing the compound or vehicle. The vasopressor response of angiotensin II is measured for the increase in systolic blood pressure in mmHg. The percentage of antagonism or blockade of the vasopressor response of angiotensin II by a compound is calculated using the vasopressor response (increase in systolic blood pressure) of angiotensin II of each rat predosing the compound as 100%. A compound is considered active if at 30 mg/kg i.v. it antagonized at least 50% of the response.", "key": {"[1]": {"conditions": "AII 0.01 mcg/kg IV (so in the source), 60 min post dose"}, "[2]": {"conditions": "AII 0.01 mcg/kg IV (so in the source), 90 min post dose"}, "[3]": {"conditions": "AII 0.05 mcg/kg IV, 30 min post dose"}, "[4]": {"conditions": "AII 0.05 mcg/kg IV, 60 min post dose"}, "[5]": {"conditions": "AII 0.05 mcg/kg IV, 90 min post dose"}, "[6]": {"conditions": "AII 0.05 mcg/kg IV, 120 min post dose"}, "[7]": {"conditions": "AII 0.05 mcg/kg IV, 180 min post dose"}, "[8]": {"conditions": "AII 0.05 mcg/kg IV, 240 min post dose"}, "[9]": {"conditions": "AII 0.05 mcg/kg IV, 300 min post dose"}, "[10]": {"conditions": "AII 0.1 mcg/kg IV, 30 min post dose"}, "[11]": {"conditions": "AII 0.1 mcg/kg IV, 120 min post dose"}, "[12]": {"conditions": "AII 0.1 mcg/kg IV, 180 min post dose"}, "[13]": {"conditions": "AII 0.1 mcg/kg IV, 240 min post dose"}, "[14]": {"conditions": "AII 0.1 mcg/kg IV, 300 min post dose"}, "[15]": {"conditions": "AII 0.01 mcg/kg IV (so in the source), 60 min post dose, 3 mg/kg"}, "[16]": {"conditions": "AII 0.01 mcg/kg IV (so in the source), 90 min post dose, 3 mg/kg"}, "[17]": {"conditions": "AII 0.05 mcg/kg IV, 30 min post dose, 3 mg/kg"}, "[18]": {"conditions": "AII 0.05 mcg/kg IV, 60 min post dose, 3 mg/kg"}, "[19]": {"conditions": "AII 0.05 mcg/kg IV, 90 min post dose, 3 mg/kg"}, "[20]": {"conditions": "AII 0.05 mcg/kg IV, 120 min post dose, 3 mg/kg"}, "[21]": {"conditions": "AII 0.05 mcg/kg IV, 180 min post dose, 3 mg/kg"}, "[22]": {"conditions": "AII 0.05 mcg/kg IV, 240 min post dose, 3 mg/kg"}, "[23]": {"conditions": "AII 0.05 mcg/kg IV, 300 min post dose, 3 mg/kg"}, "[24]": {"conditions": "AII 0.1 mcg/kg IV, 30 min post dose, 3 mg/kg"}, "[25]": {"conditions": "AII 0.1 mcg/kg IV, 120 min post dose, 3 mg/kg"}, "[26]": {"conditions": "AII 0.1 mcg/kg IV, 180 min post dose, 3 mg/kg"}, "[27]": {"conditions": "AII 0.1 mcg/kg IV, 240 min post dose, 3 mg/kg"}, "[28]": {"conditions": "AII 0.1 mcg/kg IV, 300 min post dose, 3 mg/kg"}}, "note": "Values joined by “and” are separate entries in the source; they are usually repeats but may differ in a detail not shown here. Equal values may be shown once."}
{"smiles": "CCCCc1nc2ccc([C@@]3(C)NN[C@@H]4C(=O)N(C)C(=O)[C@@H]43)cc2c(=O)n1Cc1ccc(-c2ccccc2-c2nnn[nH]2)cc1", "note": "(relative stereo) [Example 10, (3-alpha,3aalpha,6aalpha)-3-[2-butyl-3,4-dihydro-4-oxo-3-[[2'-(1H-tetrazol-5-yl)-[1,1'-biphenyl]-4-yl]methyl]-6-quinazolinyl]-2,3,3a,6a-tetrahydro-3,5-dimethyl-pyrrolo[3,4-c]pyrazole-4,6(1H,5H)-dione]", "values": [{"measurement": "% Inhibition", "setting": "[1]", "value": 53, "unit": "%"}, {"measurement": "Average Change", "setting": "[1]", "value": 22.5, "unit": "mmHg"}, {"measurement": "% Inhibition", "setting": "[2]", "value": 47, "unit": "%"}, {"measurement": "Average Change", "setting": "[2]", "value": 25, "unit": "mmHg"}, {"measurement": "% Inhibition", "setting": "[3]", "value": 66, "unit": "%"}, {"measurement": "Average Change", "setting": "[3]", "value": 16, "unit": "mmHg"}, {"measurement": "% Inhibition", "setting": "[4]", "value": 68, "unit": "%"}, {"measurement": "Average Change", "setting": "[4]", "value": 15, "unit": "mmHg"}, {"measurement": "% Inhibition", "setting": "[5]", "value": 63, "unit": "%"}, {"measurement": "Average Change", "setting": "[5]", "value": 17.5, "unit": "mmHg"}, {"measurement": "% Inhibition", "setting": "[6]", "value": 47, "unit": "%"}, {"measurement": "Average Change", "setting": "[6]", "value": 25, "unit": "mmHg"}, {"measurement": "% Inhibition", "setting": "[7]", "value": 47, "unit": "%"}, {"measurement": "Average Change", "setting": "[7]", "value": 25, "unit": "mmHg"}, {"measurement": "% Inhibition", "setting": "[8]", "value": 47, "unit": "%"}, {"measurement": "Average Change", "setting": "[8]", "value": 25, "unit": "mmHg"}, {"measurement": "% Inhibition", "setting": "[9]", "value": 32, "unit": "%"}, {"measurement": "Average Change", "setting": "[9]", "value": 32.5, "unit": "mmHg"}, {"measurement": "% Inhibition", "setting": "[10]", "value": 53, "unit": "%"}, {"measurement": "Average Change", "setting": "[10]", "value": 22.5, "unit": "mmHg"}, {"measurement": "% Inhibition", "setting": "[11]", "value": 47, "unit": "%"}, {"measurement": "Average Change", "setting": "[11]", "value": 25, "unit": "mmHg"}, {"measurement": "% Inhibition", "setting": "[12]", "value": 37, "unit": "%"}, {"measurement": "Average Change", "setting": "[12]", "value": 30, "unit": "mmHg"}, {"measurement": "% Inhibition", "setting": "[13]", "value": 40, "unit": "%"}, {"measurement": "Average Change", "setting": "[13]", "value": 28.5, "unit": "mmHg"}, {"measurement": "% Inhibition", "setting": "[14]", "value": 23, "unit": "%"}, {"measurement": "Average Change", "setting": "[14]", "value": 36.5, "unit": "mmHg"}, {"measurement": "Response After AII", "setting": "[1]", "value": 250, "unit": "mmHg"}, {"measurement": "Change", "setting": "[15]", "value": "25 mmHg and 20 mmHg"}, {"measurement": "Control Before AII", "setting": "[15]", "value": "225 mmHg and 230 mmHg"}, {"measurement": "Change", "setting": "[2]", "value": 25, "unit": "mmHg"}, {"measurement": "Control Before AII", "setting": "[16]", "value": "225 mmHg and 230 mmHg"}, {"measurement": "Response After AII", "setting": "[16]", "value": "250 mmHg and 255 mmHg"}, {"measurement": "Change", "setting": "[17]", "value": "20 mmHg and 12 mmHg"}, {"measurement": "Control Before AII", "setting": "[17]", "value": "220 mmHg and 245 mmHg"}, {"measurement": "Response After AII", "setting": "[17]", "value": "240 mmHg and 257 mmHg"}, {"measurement": "Change", "setting": "[4]", "value": 15, "unit": "mmHg"}, {"measurement": "Control Before AII", "setting": "[18]", "value": "220 mmHg and 225 mmHg"}, {"measurement": "Response After AII", "setting": "[18]", "value": "235 mmHg and 240 mmHg"}, {"measurement": "Change", "setting": "[19]", "value": "20 mmHg and 15 mmHg"}, {"measurement": "Control Before AII", "setting": "[19]", "value": "215 mmHg and 225 mmHg"}, {"measurement": "Response After AII", "setting": "[19]", "value": "235 mmHg and 240 mmHg"}, {"measurement": "Change", "setting": "[20]", "value": "20 mmHg and 30 mmHg"}, {"measurement": "Control Before AII", "setting": "[20]", "value": "215 mmHg and 225 mmHg"}, {"measurement": "Response After AII", "setting": "[20]", "value": "235 mmHg and 255 mmHg"}, {"measurement": "Control Before AII", "setting": "[7]", "value": 210, "unit": "mmHg"}, {"measurement": "Change", "setting": "[21]", "value": "20 mmHg and 30 mmHg"}, {"measurement": "Response After AII", "setting": "[21]", "value": "230 mmHg and 240 mmHg"}, {"measurement": "Change", "setting": "[8]", "value": 25, "unit": "mmHg"}, {"measurement": "Control Before AII", "setting": "[22]", "value": "210 mmHg and 230 mmHg"}, {"measurement": "Response After AII", "setting": "[22]", "value": "235 mmHg and 255 mmHg"}, {"measurement": "Change", "setting": "[23]", "value": "30 mmHg and 35 mmHg"}, {"measurement": "Control Before AII", "setting": "[23]", "value": "210 mmHg and 225 mmHg"}, {"measurement": "Response After AII", "setting": "[23]", "value": "240 mmHg and 260 mmHg"}, {"measurement": "Change", "setting": "[24]", "value": "20 mmHg and 25 mmHg"}, {"measurement": "Control Before AII", "setting": "[24]", "value": "225 mmHg and 240 mmHg"}, {"measurement": "Response After AII", "setting": "[24]", "value": "245 mmHg and 265 mmHg"}, {"measurement": "Change", "setting": "[11]", "value": 25, "unit": "mmHg"}, {"measurement": "Control Before AII", "setting": "[25]", "value": "220 mmHg and 230 mmHg"}, {"measurement": "Response After AII", "setting": "[25]", "value": "245 mmHg and 255 mmHg"}, {"measurement": "Change", "setting": "[26]", "value": "40 mmHg and 20 mmHg"}, {"measurement": "Control Before AII", "setting": "[26]", "value": "210 mmHg and 235 mmHg"}, {"measurement": "Response After AII", "setting": "[26]", "value": "250 mmHg and 255 mmHg"}, {"measurement": "Change", "setting": "[27]", "value": "32 mmHg and 25 mmHg"}, {"measurement": "Control Before AII", "setting": "[27]", "value": "210 mmHg and 235 mmHg"}, {"measurement": "Response After AII", "setting": "[27]", "value": "242 mmHg and 260 mmHg"}, {"measurement": "Change", "setting": "[28]", "value": "40 mmHg and 33 mmHg"}, {"measurement": "Control Before AII", "setting": "[28]", "value": "210 mmHg and 227 mmHg"}, {"measurement": "Response After AII", "setting": "[28]", "value": "250 mmHg and 260 mmHg"}]}
